According to patent publication US20250389725A1, “METHOD FOR DETECTION OF SULFUR-CONTAINING AMINO ACID AS BIOMARKER FOR GLIOBLASTOMA USING NOVEL FLUORESCENT PROBE AND FLUORESCENCE-GUIDED SURGERY IMAGING APPLICATION THEREOF” (UNIVERSITY-INDUSTRY COOPERATION GROUP OF KYUNG HEE …, priority 2023, published 2025):

Experiments:
Format in all cases: cell-based
hepatoma cells (Huh7) = assay: CCK-8 cell viability (toxicity), Huh7; conditions: Huh7, CCK-8, compared to leaving groups with similar structures
Experimental: (§1) Specifically, for cell preparation, approximately 5×10^3 cells each of glioblastoma cells (U87MG), hepatoma cells (Huh7), cervical cancer cells (HeLa), and skin cancer cells (B16F10) were treated in a 96-well clear plate (SPL Life Science, Ref. of Korea), cultured at 37° C. for 24 hours, and then treated with Compound 1 (NPO-o-Pyr, 10 μM) and analyzed using a CCK-8 assay kit (Dofindo, Japan) according to the manufacturer's instructions. Absorbance levels were analyzed at a wavelength of 490 nm by a microplate reader (SpctraMax Gemini EM, Molecular Devices, US). 2-Hydroxypyridine and various leaving groups with similar structures thereto were treated in U87MG, Huh7, HeLa, and B16F10 cells, and the cell viability was measured, which was shown in FIG. 12.

[1] = tested on: glioblastoma cells (U87MG); assay: CCK-8 cell viability (toxicity), U87MG; conditions: CCK-8, compared to leaving groups with similar structures
Experimental: as §1

[2] = tested on: cervical cancer cells (HeLa); assay: CCK-8 cell viability (toxicity), HeLa; conditions: CCK-8, compared to leaving groups with similar structures
Experimental: as §1

[3] = tested on: skin cancer cells (B16F10); assay: CCK-8 cell viability (toxicity), B16F10; conditions: B16F10, CCK-8, compared to leaving groups with similar structures
Experimental: as §1

Measured: toxicity (cell viability)

Oc1ccccn1 [2-hydroxypyridine]
very low: hepatoma cells (Huh7) | [1] | [2] | [3]
